Experimental data from patent US10966949B2, “Dietary supplementation to achieve oxy-redox homeostasis and epigenetic stability” (PARTHENOGEN SAGL, priority 2015, dated 2021).

Tests used:
[1] = system: patients with type 2 diabetes mellitus; experiment: Adjuvant treatment to metformin in newly diagnosed type 2 diabetes mellitus; format: in vivo, human
From the text: Thirty male patients newly diagnosed as affected by type 2 diabetes mellitus and starting a treatment with metformin, 1-2 gr daily, where randomly assigned to a 3-month adjuvant treatment with the composition formulated according to EXAMPLE 1, 1 tablet per day, or no treatment.

[2] = system: plasma total antioxidant capacity (TAC); experiment: Plasma total antioxidant capacity (TAC) in regular smokers, cross-over; format: in vivo, human; conditions: ten male smokers
Procedure: Ten male subjects regularly smoking 15 cigarettes per day or more assumed the composition formulated according to EXAMPLE 1, 1 tablet per day during 1 week or 1000 mg daily of vitamin C by the oral route for 1 week according to a cross-over design with a 1 month wash-out interval between the treatments. The plasma total antioxidant capacity (TAC) was measured by means of a colorimetric assay kit before and after each of the treatment periods in all subjects. The average TAC values expressed as μmol trolox equivalents increased from 472±36 to 522±32 (increase=11%) following one week supplementation with the powerful direct antioxidant vitamin C and from 468±31 to 565±36 (increase=21%) following one week supplementation with the composition according to the invention. Thus, the TAC increase provided by the aforementioned composition was of the same magnitude, if not higher, than that induced by full doses of a potent direct antioxidant.

[3] = system: plasma total antioxidant capacity (TAC); experiment: Plasma total antioxidant capacity (TAC) in healthy young males, cross-over; format: in vivo, human
Procedure: Ten young male subjects aged 18-25, following a healthy diet and virtually free from diseases assumed the composition formulated according to EXAMPLE 1, 1 tablet per day, for 1 week or 1000 mg daily of vitamin C by the oral route for 1 week according to a cross-over design with a 1 month wash-out interval between the treatments. The plasma total antioxidant capacity (TAC) was measured by means of a colorimetric assay kit before and after each of the treatment periods in all subjects. The average TAC values expressed as μmol trolox equivalents increased from 572±33 to 646±20 (increase=13%) following one week supplementation with the powerful direct antioxidant vitamin C whereas it remained stable (from 570±31 to 578±26, increase=1%) following one week supplementation with the composition according to the invention.

[4] = system: Agouti gene Avy; experiment: Agouti-yellow coat colour of offspring of supplemented VY dams (DNA methylation marking); format: in vivo, mouse; conditions: dams' diet fortified during gestation, human-equivalent dose, n=10; standard diet 66%
From the text: Mice embryos carrying the transgenic Agouti gene Avy will develop during gestation an Agouti-yellow color hair instead of the normal brown color proportionally to the lack of cytosine methylation at the relevant gene promoter. Mothers with a good DNA methylation function during early embryogenesis will generate offspring exerting less of the yellow color, thus the proportion of yellow color in the offspring can be used as a measure of efficiency of DNA methylation marking. Newborn mice are classified as Y0 to Y5 according to the amount of yellow phenotype, from Y0 for those without yellow hair up to Y5 in those fully colored in yellow. Dams of the inbred agouti mouse strain VY underwent diversified feeding during their gestation: their standard diet (n=10), or; their standard diet fortified with folic acid in amounts equivalent to a human dose of 400 μg daily (n=10), or; their standard diet fortified with the substances in amounts equivalent to a human dose of 1 tablet per day of the formulation of EXAMPLE 1 (n=10). The offspring was classified Y0 to Y5 according to the amount of yellow colour. In the standard diet group the rate of offspring abundant Agouti yellow color (Y3 to Y5) was 66%, which decreased to 45% in the offspring from folic acid supplementation and to 31% in the offspring supplemented by the composition according to the invention.

[5] = all patients on metformin 1-2 gr daily, 3 months

CN(C)C(=N)N=C(N)N [metformin]
plasma homocysteine at the end of treatment [1, 5]: 14.4 ± 2.1 µmol/L | serum HbA1C percentage at end [1, 5]: 9.2% | serum HbA1C percentage at baseline ([1]; all patients on metformin 1-2 gr daily, baseline): 10.4% | plasma homocysteine at baseline ([1]; male type 2 diabetes patients starting metformin 1-2 gr daily, baseline): 12.04 ± 1.6 µmol/L

O=C1O[C@H]([C@@H](O)CO)C(O)=C1O [vitamin C]
average plasma TAC before treatment ([2]; 15 cigarettes per day or more, before one week supplementation): 472±36 μmol trolox equivalents | average plasma TAC after treatment ([2]; after one week supplementation): 522±32 μmol trolox equivalents | TAC increase ([2]; one week supplementation): 11% | average plasma TAC after treatment ([3]; ten healthy young males aged 18-25, after one week supplementation): 646±20 μmol trolox equivalents | average plasma TAC before treatment ([3]; ten healthy young males aged 18-25, before one week supplementation): 572±33 μmol trolox equivalents | TAC increase ([3]; ten healthy young males, one week supplementation): 13%

Nc1nc2ncc(CNc3ccc(C(=O)N[C@@H](CCC(=O)O)C(=O)O)cc3)nc2c(=O)[nH]1 [folic acid]
rate of offspring with abundant Agouti yellow color (Y3 to Y5) [4]: 45%
